For assay [1], the target named is T1, Full length DGKζ (in-house protein M1-V929) (Homo sapiens, UniProt Q13574).
T1 construct: His (N); TEV site (N); made in house; host or cells: Sf9 insect cells (Bac-to-Bac baculovirus)
Put plainly: Biochemical DGK IC50 assay (ADP-Glo, lipid micelle substrate), DGKζ. The following applies: 1 hour preincubation, 1 hour reaction, room temperature. Summed up: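 Full-length human DGKζ (M1-V929, His-TEV tagged, Sf9 baculovirus-expressed) with DAG/PS lipid micelle substrate in octyl glucoside, at room temperature in 50 mM HEPES, 10 mM MgCl2, 0.01 mM CaCl2 buffer.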
On the technique in general: In ADP-Glo the light output rises with the ADP produced.

For assay [2], the target named is T2, Full length DGKα (D21-10BG, SignalChem) (Homo sapiens, UniProt P23743).
T2 construct: Full length DGKα (D21-10BG, SignalChem); purchased SignalChem D21-10BG
Put plainly: Biochemical DGK IC50 assay (ADP-Glo, lipid micelle substrate), DGKα. The following applies: 1 hour preincubation, 1 hour reaction, room temperature. An outline of the steps:
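Full-length human DGKα with DAG/PS lipid micelle substrate (in octyl glucoside buffer), reacted 1 h at room temperature in 50 mM HEPES, 10 mM MgCl2, 0.01 mM CaCl2, 0.1 mM Na3VO4, 0.01% BSA, 0.005% Tween-20. ADP formed read by ADP-Glo luminescence; IC50 from inhibition across increasing compound concentrations.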

pIC50: −log10 of the molar value.

T2 sequence (P23743 whole entry): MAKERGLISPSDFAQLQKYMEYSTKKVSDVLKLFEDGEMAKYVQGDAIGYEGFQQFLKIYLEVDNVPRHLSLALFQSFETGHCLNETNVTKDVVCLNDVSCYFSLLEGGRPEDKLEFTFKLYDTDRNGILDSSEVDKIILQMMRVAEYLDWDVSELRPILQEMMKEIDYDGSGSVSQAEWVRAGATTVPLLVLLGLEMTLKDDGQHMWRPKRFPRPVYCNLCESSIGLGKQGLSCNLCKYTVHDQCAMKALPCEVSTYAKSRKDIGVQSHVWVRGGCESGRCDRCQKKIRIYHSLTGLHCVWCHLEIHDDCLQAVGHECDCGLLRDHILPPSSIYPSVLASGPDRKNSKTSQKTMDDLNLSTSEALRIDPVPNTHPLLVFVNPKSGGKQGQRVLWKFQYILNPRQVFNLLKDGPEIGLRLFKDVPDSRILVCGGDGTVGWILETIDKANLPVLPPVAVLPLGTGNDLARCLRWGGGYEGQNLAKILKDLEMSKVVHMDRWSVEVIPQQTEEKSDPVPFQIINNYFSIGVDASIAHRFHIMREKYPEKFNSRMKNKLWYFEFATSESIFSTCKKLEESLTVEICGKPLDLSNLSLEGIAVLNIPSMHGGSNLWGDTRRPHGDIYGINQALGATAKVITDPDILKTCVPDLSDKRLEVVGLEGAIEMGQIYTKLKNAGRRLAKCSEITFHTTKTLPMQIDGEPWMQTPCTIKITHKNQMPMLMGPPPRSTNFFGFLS
T1 sequence (Q13574 1-929 isoform Q13574-4): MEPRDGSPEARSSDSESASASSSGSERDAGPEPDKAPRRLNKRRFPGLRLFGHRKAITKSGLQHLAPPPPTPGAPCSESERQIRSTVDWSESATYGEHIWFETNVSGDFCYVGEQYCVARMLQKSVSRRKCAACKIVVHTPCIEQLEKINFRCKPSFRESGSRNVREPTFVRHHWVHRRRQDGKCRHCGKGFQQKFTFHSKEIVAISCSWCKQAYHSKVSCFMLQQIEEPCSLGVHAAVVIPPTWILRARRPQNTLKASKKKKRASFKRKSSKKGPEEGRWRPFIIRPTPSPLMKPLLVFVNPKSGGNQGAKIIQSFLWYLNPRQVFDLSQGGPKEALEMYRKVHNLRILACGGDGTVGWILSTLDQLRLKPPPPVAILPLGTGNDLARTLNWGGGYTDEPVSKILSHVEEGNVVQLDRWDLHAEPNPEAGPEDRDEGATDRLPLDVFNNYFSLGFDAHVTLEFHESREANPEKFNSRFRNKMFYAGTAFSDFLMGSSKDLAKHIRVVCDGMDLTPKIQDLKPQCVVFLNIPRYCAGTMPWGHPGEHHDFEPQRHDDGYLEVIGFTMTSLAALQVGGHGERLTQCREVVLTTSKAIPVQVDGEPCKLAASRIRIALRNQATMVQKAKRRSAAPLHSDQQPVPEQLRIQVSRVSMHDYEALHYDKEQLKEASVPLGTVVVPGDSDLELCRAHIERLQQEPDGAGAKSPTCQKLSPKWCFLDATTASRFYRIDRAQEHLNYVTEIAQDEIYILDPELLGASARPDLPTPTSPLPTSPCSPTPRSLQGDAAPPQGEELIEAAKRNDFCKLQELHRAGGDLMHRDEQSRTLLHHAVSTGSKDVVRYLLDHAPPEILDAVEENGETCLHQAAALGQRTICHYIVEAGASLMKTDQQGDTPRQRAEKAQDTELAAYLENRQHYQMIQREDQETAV

In general, pIC50 refers to −log10 of the IC50, conventionally taken in molar units. The low end stands for a high IC50, the high end for a low IC50. Take `CCn1c(CC#N)nc2c(N3C[C@@H](C)N(C(C)c4ccc(C)cc4C(F)(F)F)C[C@@H]3C)nc(=O)n(C)c21` (stereo partly drawn) [Compound A116, 2-(6-((2S,5R)-2,5-dimethyl-4-(1-(4-methyl-2-(trifluoromethyl)phenyl)ethyl)piperazin-1-yl)-9-ethyl-3-methyl-2-oxo-3,9-dihydro-2H-purin-8-yl)acetonitrile]: the figures for the pIC50 in assay [1] and in assay [2] were 6.46 and less than 3.82, respectively.

In the case of `CCn1c(CC#N)nc2c(N3C[C@@H](C)N(C(C)c4nc5c(cc4F)OCC(C)(C)O5)C[C@@H]3C)nc(=O)n(C)c21` (single isomer, unassigned) [Compound A161b], the values for the pIC50 in assay [1] and in assay [2] were 5.58 and less than 3.82, respectively.

Take `CCn1c(CC#N)nc2c(N3C[C@@H](C)N(C(C)c4cccc(C(C)C)c4)C[C@@H]3C)nc(=O)n(C)c21` (single isomer, unassigned) [Compound A108b]: the pIC50 in assay [1] was 6.09; in assay [2], 4.02.

Take `CCn1c(CC#N)nc2c(N3C[C@@H](C)N(C(C)c4ccnc(-c5ccccc5)c4)C[C@@H]3C)nc(=O)n(C)c21` (stereo partly drawn) [Compound A144, 2-(6-((2S,5R)-2,5-dimethyl-4-(1-(2-phenylpyridin-4-yl)ethyl)piperazin-1-yl)-9-ethyl-3-methyl-2-oxo-3,9-dihydro-2H-purin-8-yl)acetonitrile]: the pIC50 in assay [1] was 7.22; in assay [2], 4.13.

With `CCn1c(CC#N)nc2c(N3C[C@@H](C)N(C(C)c4ccc(F)c5c4OC(C)(C)O5)C[C@@H]3C)nc(=O)n(C)c21` (single isomer, unassigned) [Compound A185a], the pIC50 was 6.09 in assay [1] and 3.92 in assay [2].

As for `CC(c1ccc2c(c1)OC(F)(F)C(F)(F)O2)N1C[C@H](C)N(c2nc(=O)n(C)c3c2nc(CC#N)n3C)C[C@H]1C` (single isomer, unassigned) [Compound A79b], the values for the pIC50 in assay [1] and in assay [2] were 6.28 and 4.83, respectively.

For `CCn1c(CC#N)nc2c(N3C[C@@H](C)N(C(C)c4cccc(OC)c4)C[C@@H]3C)nc(=O)n(C)c21` (stereo partly drawn) [Compound A46, 2-(9-ethyl-6-((2S,5R)-4-(1-(3-methoxyphenyl)ethyl)-2,5-dimethylpiperazin-1-yl)-3-methyl-2-oxo-3,9-dihydro-2H-purin-8-yl)acetonitrile], the pIC50 is 6.52 in assay [1] and less than 3.82 in assay [2].

On to `CCn1c(CC#N)nc2c(N3C[C@@H](C)N(C(C)c4ccc5c(c4)OC(C)(C)C5)C[C@@H]3C)nc(=O)n(C)c21` (stereo partly drawn) [Compound A97, 2-(6-((2S,5R)-4-(1-(2,2-dimethyl-2,3-dihydrobenzofuran-6-yl)ethyl)-2,5-dimethylpiperazin-1-yl)-9-ethyl-3-methyl-2-oxo-3,9-dihydro-2H-purin-8-yl)acetonitrile], for which the negative-log IC50 (pIC50) in assay [1] was 7.96; in assay [2] it was 4.29.

In the case of `Cc1ccc(C(C)N2C[C@H](C)N(c3cc(=O)n(C)c4sc(CC#N)nc34)C[C@H]2C)c(C(F)(F)F)c1` (stereo partly drawn) [Compound A196, 2-(7-((2S,5R)-2,5-dimethyl-4-(1-(4-methyl-2-(trifluoromethyl)phenyl)ethyl)piperazin-1-yl)-4-methyl-5-oxo-4,5-dihydrothiazolo[5,4-b]pyridin-2-yl)acetonitrile], the pIC50 in assay [1] was 6.13; in assay [2], less than 5.00.

For the compound `CC#CCc1nc2c(N3C[C@@H](CC)N(C(C)c4ccc(C(F)(F)F)cc4)C[C@@H]3CC)nc(=O)n(C)c2n1C` (stereo partly drawn) [Compound A152, 8-(but-2-yn-1-yl)-6-((2S,5R)-2,5-diethyl-4-(1-(4-(trifluoromethyl)phenyl)ethyl)piperazin-1-yl)-3,9-dimethyl-3,9-dihydro-2H-purin-2-one], the negative-log IC50 (pIC50) was 6.15 in assay [1] and 5.57 in assay [2].

With `CCc1nc2cc(C(C)N3C[C@H](C)N(c4nc(=O)n(C)c5c4nc(CC#N)n5CC)C[C@H]3C)ccc2s1` (single isomer, unassigned) [Compound A95a], the pIC50 in assay [1] was 7.96; in assay [2], 4.61.

`CC(c1ccc2nccnc2c1)N1C[C@H](C)N(c2cc(=O)n(C)c3c2nc(CC#N)n3C)C[C@H]1C` (single isomer, unassigned) [Compound A1b]: the results for the pIC50 in assay [1] and in assay [2] were 5.63 and less than 5.00, respectively.

In the case of `CCn1c(CC#N)nc2c(N3C[C@@H](C)N(C(C)c4ccnc(OC(C)C)c4)C[C@@H]3C)nc(=O)n(C)c21` (stereo partly drawn) [Compound A124, 2-(9-ethyl-6-((2S,5R)-4-(1-(2-isopropoxypyridin-4-yl)ethyl)-2,5-dimethylpiperazin-1-yl)-3-methyl-2-oxo-3,9-dihydro-2H-purin-8-yl)acetonitrile], the pIC50 in assay [1] was 7.32; in assay [2] it was 3.95.

Take `CC(c1ccc2c(c1)OCCO2)N1C[C@H](C)N(c2c(F)c(=O)n(C)c3c2nc(CC#N)n3C)C[C@H]1C` (single isomer, unassigned) [Compound A18b]: the values for the pIC50 in assay [1] and in assay [2] were 7.49 and 5.20, respectively.

Turning to `CCn1c(=O)nc(N2C[C@@H](C)N(C(C)c3ccc4ncc(C)nc4c3)C[C@@H]2C)c2nc(CC#N)n(C)c21` (single isomer, unassigned) [Compound A53a], the negative-log IC50 (pIC50) is 7.62 in assay [1] and 4.22 in assay [2].

`COCc1cc(F)ccc1C(C)N1C[C@H](C)N(c2nc(=O)n(C)c3c2nc(CC#N)n3C)C[C@H]1C` (single isomer, unassigned) [Compound A27a]: the pIC50 is 6.24 in assay [1] and less than 5.00 in assay [2].

As for `CCn1c(CC#N)nc2c(N3C[C@@H](C)N(C(C)c4cc(C(F)(F)F)ccc4F)C[C@@H]3C)nc(=O)n(C)c21` (stereo partly drawn) [Compound A114, 2-(9-ethyl-6-((2S,5R)-4-(1-(2-fluoro-5-(trifluoromethyl)phenyl)ethyl)-2,5-dimethylpiperazin-1-yl)-3-methyl-2-oxo-3,9-dihydro-2H-purin-8-yl)acetonitrile], the pIC50 is 6.61 in assay [1] and 3.87 in assay [2].

In the case of `CC(c1ccc(F)cc1C(F)(F)F)N1C[C@H](C)N(c2nc(=O)n(C)c3c2nc(CC#N)n3C)C[C@H]1C` (single isomer, unassigned) [Compound A33b], the pIC50 is 8.52 in assay [1] and less than 5.00 in assay [2].

As to `CCn1c(CC#N)nc2c(N3C[C@@H](C)N(C(C)c4ccc5c(c4)OC(F)(F)CO5)C[C@@H]3C)nc(=O)n(C)c21` (mixture of isomers) [Compound A80, 2-(6-((2S,5R)-4-(1-(3,3-difluoro-2,3-dihydrobenzo[b][1,4]dioxin-6-yl)ethyl)-2,5-dimethylpiperazin-1-yl)-9-ethyl-3-methyl-2-oxo-3,9-dihydro-2H-purin-8-yl)acetonitrile], the values for the pIC50 in assay [1] and in assay [2] were 7.51 and 4.02, respectively.

Turning to `COC[C@H]1CN(C(C)c2ccc(F)cc2C(F)(F)F)[C@H](C)CN1c1nc(=O)n(C)c2c1nc(CC#N)n2C` (single isomer, unassigned) [Compound A10b], the values for the negative logarithm of the IC50 (pIC50) in assay [1] and in assay [2] were 7.85 and less than 5.00, respectively.

As to `CCn1c(CC#N)nc2c(N3C[C@@H](C)N(C(C)c4csc(C(F)(F)F)n4)C[C@@H]3C)nc(=O)n(C)c21` (stereo partly drawn) [Compound A104, 2-(6-((2S,5R)-2,5-dimethyl-4-(1-(2-(trifluoromethyl)thiazol-4-yl)ethyl)piperazin-1-yl)-9-ethyl-3-methyl-2-oxo-3,9-dihydro-2H-purin-8-yl)acetonitrile], the values for the pIC50 in assay [1] and in assay [2] were 6.08 and less than 3.82, respectively.

In the case of `CC[C@@H]1CN(c2nc(=O)n(CC)c3c2nc(CC#N)n3C)[C@@H](C)CN1C(C)c1ccc2c(c1)OC(C)(C)CO2` (single isomer, unassigned) [Compound A66a], the values for the negative logarithm of the IC50 (pIC50) in assay [1] and in assay [2] were 6.66 and 4.80, respectively.

As for `CCn1c(CC#N)nc2c(N3C[C@@H](C)N(C(C)c4ccc5c(c4)OC(C)(C)O5)C[C@@H]3C)nc(=O)n(C)c21` (single isomer, unassigned) [Compound A85b], the pIC50 in assay [1] is 7.85; in assay [2] it was 4.05.

Consider `CC(c1cc(F)c2c(n1)OC(C)(C)CO2)N1C[C@H](C)N(c2nc(=O)n(C)c3c2nc(CC#N)n3C)C[C@H]1C` (stereo partly drawn) [Compound A164, 2-(6-((2S,5R)-4-(1-(8-fluoro-3,3-dimethyl-2,3-dihydro-[1,4]dioxino[2,3-b]pyridin-6-yl)ethyl)-2,5-dimethylpiperazin-1-yl)-3,9-dimethyl-2-oxo-3,9-dihydro-2H-purin-8-yl)acetonitrile], for which the pIC50 in assay [1] is 7.51; in assay [2], 3.90.

On to `Cc1ccc(C(C)N2C[C@H](C)N(c3cc(=O)n(C)c4c3nc(CC#N)n4C)C[C@H]2C)c(C(F)(F)F)c1` (single isomer, unassigned) [Compound A8a], for which the pIC50 is 5.83 in assay [1] and less than 5.00 in assay [2].

With `CCn1c(CC#N)nc2c(N3C[C@@H](C)N(C(C)c4cccc(C(C)C)c4)C[C@@H]3C)nc(=O)n(C)c21` (single isomer, unassigned) [Compound A108a], the figures for the pIC50 in assay [1] and in assay [2] were 8.15 and 4.19, respectively.

Take `CC(c1ccc(F)cc1OC(F)F)N1C[C@H](C)N(c2nc(=O)n(C)c3c2nc(CC#N)n3C)C[C@H]1C` (stereo partly drawn) [Compound A25, 2-(6-((2S,5R)-4-(1-(2-(difluoromethoxy)-4-fluorophenyl)ethyl)-2,5-dimethylpiperazin-1-yl)-3,9-dimethyl-2-oxo-3,9-dihydro-2H-purin-8-yl)acetonitrile]: the pIC50 was 7.82 in assay [1] and 4.43 in assay [2].

For `CC(c1cc2c(cc1F)OCC(C)(C)O2)N1C[C@H](C)N(c2nc(=O)n(C)c3c2nc(CC#N)n3C)C[C@H]1C` (single isomer, unassigned) [Compound A69b], the pIC50 in assay [1] is 6.83; in assay [2], 5.22.

(Values after patent US20260125378A2, “Heterocyclic Compounds” (BeOne Medicines I GmbH, priority 2023, published 2026).)
